Measurements published in patent US10174016B2 (BAYER AKTIENGESELLSCHAFT, priority 2014, dated 2019).
Like-named read-outs stand apart in the source and are kept apart here.

What was measured:
human P2X3 receptor = human P2X3 receptor (Homo sapiens (Human), UniProt P56373); assay: Intracellular calcium measurement (FLIPR, Fluo-4) of antagonist activity at human P2X3 receptors; assay type: cell-based; settings: read-out: hP2X3 IC50
Summary of the method: (§1)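 Cells expressing human P2X3 or P2X2/3, loaded with Fluo-4, preincubated 30 min at 37° C. with compound (1% DMSO final), then challenged with α,β-Me-ATP at its EC80. Peak FLIPR fluorescence over 90 sec gave % response; IC50, maximal inhibition and Hill slope from triplicates.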

human P2X2/3 receptor = human P2X2/3 receptor (Homo sapiens (Human), UniProt P56373+Q9UBL9); assay: Intracellular calcium measurement (FLIPR, Fluo-4) of antagonist activity at human P2X2/3 receptors; assay type: cell-based
Summary of the method: as §1

[1] = human P2X3, FLIPR calcium assay, agonist α,β-Me-ATP
[2] = human P2X2/3, FLIPR calcium assay, agonist α,β-Me-ATP, read-out: hP2X2/3 IC50

human P2X3 receptor, sequence (P56373 whole entry): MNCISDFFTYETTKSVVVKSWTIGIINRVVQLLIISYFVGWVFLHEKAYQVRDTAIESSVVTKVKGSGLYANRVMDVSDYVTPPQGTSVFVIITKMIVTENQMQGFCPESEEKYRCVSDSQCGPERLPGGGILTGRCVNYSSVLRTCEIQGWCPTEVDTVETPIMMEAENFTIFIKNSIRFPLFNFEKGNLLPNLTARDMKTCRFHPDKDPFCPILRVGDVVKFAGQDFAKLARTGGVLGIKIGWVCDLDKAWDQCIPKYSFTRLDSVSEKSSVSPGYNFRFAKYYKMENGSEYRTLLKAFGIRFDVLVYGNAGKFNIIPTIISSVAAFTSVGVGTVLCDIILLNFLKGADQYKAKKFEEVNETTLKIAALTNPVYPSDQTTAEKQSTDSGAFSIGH
human P2X2/3 receptor, sequence (P56373 whole entry): as above
human P2X2/3 receptor, sequence (Q9UBL9 whole entry): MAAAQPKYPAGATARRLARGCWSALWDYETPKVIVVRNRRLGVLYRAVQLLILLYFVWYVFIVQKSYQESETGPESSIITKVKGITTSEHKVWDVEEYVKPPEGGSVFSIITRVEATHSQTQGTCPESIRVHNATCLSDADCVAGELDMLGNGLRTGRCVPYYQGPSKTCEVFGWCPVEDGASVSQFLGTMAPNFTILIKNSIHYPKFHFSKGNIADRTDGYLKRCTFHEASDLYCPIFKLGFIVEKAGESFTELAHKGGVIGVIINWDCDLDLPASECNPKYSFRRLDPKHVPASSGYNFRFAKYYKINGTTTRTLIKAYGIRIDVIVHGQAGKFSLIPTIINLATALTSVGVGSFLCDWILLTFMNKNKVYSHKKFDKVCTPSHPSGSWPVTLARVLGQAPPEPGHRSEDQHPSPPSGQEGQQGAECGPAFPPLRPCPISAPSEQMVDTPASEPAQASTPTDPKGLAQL

| Compound | IC50 (human P2X3 receptor; [1]) [µM] | IC50 (human P2X2/3 receptor; [2]) [nM] | IC50 (human P2X3 receptor) [µM] | IC50 (human P2X2/3 receptor; hP2X2/3 IC50 (nM)) [nM] |
| --- | --- | --- | --- | --- |
| Cc1cnc(-c2cc(O[C@H]3CN4CCC3CC4)cc(C(=O)N[C@H](C)c3ccc(C(F)(F)F)nc3)c2)s1 [Example 172, 3-[(3R)-1-azabicyclo[2.2.2]oct-3-yloxy]-5-(5-methyl-1,3-thiazol-2-yl)-N-{(1R)-1-[6-(trifluoromethyl)pyridin-3-yl]ethyl}benzamide] | – | – | 0.031 | 2110 |
| CCc1cnc(-c2cc(O[C@@H]3CN4CCC3CC4)cc(C(=O)N[C@H](C)c3cnc(C(F)(F)F)nc3)c2)s1 [Example 173, 3-[(3S)-1-azabicyclo[2.2.2]oct-3-yloxy]-5-(5-ethyl-1,3-thiazol-2-yl)-N-{(1R)-1-[2-(trifluoromethyl)pyrimidin-5-yl]ethyl}benzamide] | – | – | 0.005 | 311 |
| CCc1cnc(-c2cc(O[C@H]3CN4CCC3CC4)cc(C(=O)N[C@H](C)c3cnc(C(F)(F)F)nc3)c2)s1 [Example 174, 3-[(3R)-1-azabicyclo[2.2.2]oct-3-yloxy]-5-(5-ethyl-1,3-thiazol-2-yl)-N-{(1R)-1-[2-(trifluoromethyl)pyrimidin-5-yl]ethyl}benzamide] | – | – | 0.011 | 790 |
| Cc1cnc(-c2cc(O[C@@H]3CN4CCC3CC4)cc(C(=O)N[C@H](C)c3ccc(C(F)(F)F)nc3)c2)s1 [Example 175, 3-[(3S)-1-azabicyclo[2.2.2]oct-3-yloxy]-5-(5-methyl-1,3-thiazol-2-yl)-N-{(1R)-1-[6-(trifluoromethyl)pyridin-3-yl]ethyl}benzamide] | – | – | 0.023 | 1270 |
| Cc1cnc(-c2cc(Oc3nnc(C)s3)cc(C(=O)N[C@H](C)c3ccc(C(F)(F)F)nc3)c2)s1 [Example 176, 3-[(5-methyl-1,3,4-thiadiazol-2-yl)oxy]-5-(5-methyl-1,3-thiazol-2-yl)-N-{(1R)-1-[6-(trifluoromethyl)pyridin-3-yl]ethyl}benzamide] | 0.029 | 607 | – | – |
| Cc1cnc(-c2cc(OC[C@H]3COCCO3)cc(C(=O)N[C@H](C)c3cnc(C(F)(F)F)nc3)c2)s1 [Example 178, 3-[(2R)-1,4-dioxan-2-ylmethoxy]-5-(5-methyl-1,3-thiazol-2-yl)-N-{(1R)-1-[2-(trifluoromethyl)pyrimidin-5-yl]ethyl}benzamide] | 0.039 | 1880 | – | – |
| Cc1cnc(-c2cc(OC[C@H]3COCCO3)cc(C(=O)N[C@H](C)c3ccc(C(F)(F)F)nn3)c2)s1 [Example 179, 3-[(2R)-1,4-dioxan-2-ylmethoxy]-5-(5-methyl-1,3-thiazol-2-yl)-N-{(1R)-1-[6-(trifluoromethyl)pyridazin-3-yl]ethyl} benzamide] | 0.013 | 703 | – | – |
| Cc1cnc(-c2cc(OC[C@@H]3COCCO3)cc(C(=O)N[C@H](C)c3ccc(C(F)(F)F)nc3)c2)s1 [Example 180, 3-[(2S)-1,4-dioxan-2-ylmethoxy]-5-(5-methyl-1,3-thiazol-2-yl)-N-{(1R)-1-[6-(trifluoromethyl)pyridin-3-yl]ethyl}benzamide] | 0.031 | 1400 | – | – |
| Cc1cnc(-c2cc(OC[C@@H]3COCCO3)cc(C(=O)N[C@H](C)c3cnc(C(F)(F)F)nc3)c2)s1 [Example 181, 3-[(2S)-1,4-dioxan-2-ylmethoxy]-5-(5-methyl-1,3-thiazol-2-yl)-N-{(1R)-1-[2-(trifluoromethyl)pyrimidin-5-yl]ethyl}benzamide] | 0.019 | 1180 | – | – |
| Cc1cnc(-c2cc(OC[C@@H]3COCCO3)cc(C(=O)N[C@H](C)c3ccc(C(F)(F)F)nn3)c2)s1 [Example 182, 3-[(2S)-1,4-dioxan-2-ylmethoxy]-5-(5-methyl-1,3-thiazol-2-yl)-N-{(1R)-1-[6-(trifluoromethyl)pyridazin-3-yl]ethyl}benzamide] | 0.063 | 1940 | – | – |
| Cc1cnc(-c2cc(O[C@@H]3CN4CCC3CC4)cc(C(=O)N[C@H](C)c3cnc(C(F)(F)F)nc3)c2)s1 [Example 192, 3-[(3S)-1-azabicyclo[2.2.2]oct-3-yloxy]-5-(5-methyl-1,3-thiazol-2-yl)-N-{(1R)-1-[2-(trifluoromethyl)pyrimidin-5-yl]ethyl} benzamide] | – | – | 0.012 | 910 |

Second part, led by results:

| IC50 (human P2X3 receptor; [1]) [µM] | IC50 (human P2X2/3 receptor; [2]) [nM] | Compound | IC50 (human P2X3 receptor) [µM] | IC50 (human P2X2/3 receptor; hP2X2/3 IC50 (nM)) [nM] |
| --- | --- | --- | --- | --- |
| 0.007 | 207 | Cc1cnc(-c2cc(O[C@@H]3CCCN(C(=O)OC(C)(C)C)C3)cc(C(=O)N[C@H](C)c3cnc(C(F)(F)F)nc3)c2)s1 [Example 190, tert-Butyl (3R)-3-[3-(5-methyl-1,3-thiazol-2-yl)-5-({(1R)-1-[2-(trifluoromethyl)pyrimidin-5-yl]ethyl}carbamoyl)phenoxy]piperidine-1-carboxylate] | – | – |
| 0.061 | 364 | CC#CCOc1cc(C(=O)N[C@H](C)c2ccc(C)nn2)cc(-c2ncc(C)s2)c1 [Example 191, 3-(but-2-yn-1-yloxy)-N-[(1R)-1-(6-methylpyridazin-3-yl)ethyl]-5-(5-methyl-1,3-thiazol-2-yl) benzamide] | – | – |
| 0.016 | 1850 | Cc1cnc(-c2cc(OC3CCNCC3)cc(C(=O)N[C@H](C)c3ccc(C(F)(F)F)nn3)c2)s1 [Example 201, 3-(5-methyl-1,3-thiazol-2-yl)-5-(piperidin-4-yloxy)-N-{(1R)-1-[6-(trifluoromethyl)pyridazin-3-yl]ethyl}benzamide] | – | – |
| 0.042 | 1710 | Cc1cnc(-c2cc(OC3CC4(CNC4)C3)cc(C(=O)N[C@H](C)c3cnc(C(F)(F)F)nc3)c2)s1 [Example 202, 3-(2-azaspiro[3.3]hept-6-yloxy)-5-(5-methyl-1,3-thiazol-2-yl)-N-{(1R)-1-[2-(trifluoromethyl)pyrimidin-5-yl]ethyl} benzamide] | – | – |
| 0.036 | 1560 | Cc1cnc(-c2cc(O[C@H]3CCNC3)cc(C(=O)N[C@H](C)c3cnc(C(F)(F)F)nc3)c2)s1 [Example 203, 3-(5-methyl-1,3-thiazol-2-yl)-5-[(3S)-pyrrolidin-3-yloxy]-N-{(1R)-1-[2-(trifluoromethyl)pyrimidin-5-yl]ethyl} benzamide] | – | – |
| 0.007 | 82 | Cc1cnc(-c2cc(OC3CCNCC3F)cc(C(=O)N[C@H](C)c3cnc(C(F)(F)F)nc3)c2)s1 (stereo partly drawn) [Example 204, 3-{[3-fluoropiperidin-4-yl]oxy}-5-(5-methyl-1,3-thiazol-2-yl)-N-{(1R)-1-[2-(trifluoromethyl)pyrimidin-5-yl]ethyl} benzamide] | – | – |
| 0.03 | 1470 | Cc1cnc(-c2cc(OC3CC4CC3CN4C)cc(C(=O)N[C@H](C)c3cnc(C(F)(F)F)nc3)c2)s1 (stereo partly drawn) [Example 209, 3-{[2-methyl-2-azabicyclo[2.2.1]hept-5-yl]oxy}-5-(5-methyl-1,3-thiazol-2-yl)-N-{(1R)-1-[2-(trifluoromethyl)pyrimidin-5-yl]ethyl}benzamide] | – | – |
| 0.012 | 1010 | Cc1cnc(-c2cc(OC3CCN(C)CC3)cc(C(=O)N[C@H](C)c3ccc(C(F)(F)F)nn3)c2)s1 [Example 210, 3-[(1-methylpiperidin-4-yl)oxy]-5-(5-methyl-1,3-thiazol-2-yl)-N-{(1R)-1-[6-(trifluoromethyl)pyridazin-3-yl]ethyl} benzamide] | – | – |
| 0.395 | ≥ 10000 | Cc1cnc(-c2cc(OC3CN(C)C3)cc(C(=O)N[C@H](C)c3ccc(C(F)(F)F)nn3)c2)s1 [Example 211, 3-[(1-methylazetidin-3-yl)oxy]-5-(5-methyl-1,3-thiazol-2-yl)-N-{(1R)-1-[6-(trifluoromethyl)pyridazin-3-yl]ethyl} benzamide] | – | – |
